Results reported in patent US7820623B2 (priority 2006, dated 2010).
Like-named read-outs stand apart in the source and are kept apart here. Bridge positions count the residues as written; N and C are the ends. Square brackets hold non-standard residues; d marks the D form. Peptide text beside a SMILES is read from it. 1Nal = N[C@@H](Cc1cccc2ccccc12)C(=O)O

What was measured:
[1] = system: thapsigargin-induced IFN-g production in human whole blood; format: cell-based
[2] = system: thapsigargin-induced IL-2 production in human whole blood
[3] = read-out: Analogue Activity (IC50) WB/IFNg
[4] = read-out: Analogue Activity (IC50) WB/IL-2

CC[C@H](C)[C@@H]1NC(=O)[C@H](CCCCN)NC(=O)[C@@H](NC(=O)[C@H](CCCCN)NC(=O)[C@@H](NC(=O)[C@H](CC(N)=O)NC(=O)[C@@H](NC(=O)[C@@H](NC(=O)[C@@H](NC(=O)CN)C(C)C)[C@@H](C)CC)[C@@H](C)CC)C(C)C)CSSC[C@@H]2NC(=O)[C@H](CCCCN)NC(=O)CNC(=O)[C@H](Cc3ccccc3)NC(=O)[C@H](CCCNC(=N)N)NC(=O)[C@H](CCSC)NC(=O)CNC(=O)[C@H](C)NC(=O)[C@H](CCCCN)NC(=O)[C@H](CCCCN)NC(=O)[C@@H]3CSSC[C@@H](C(=O)N[C@H](C(=O)N4CCC[C@H]4C(=O)N[C@@H](CCCCN)C(=O)O)[C@@H](C)O)NC(=O)[C@H](Cc4c[nH]cn4)NC(=O)[C@H](CSSC[C@H](NC(=O)[C@H](CCC(N)=O)NC(=O)[C@H](CCCNC(=N)N)NC(=O)[C@H](CO)NC1=O)C(=O)N[C@@H](CC(C)C)C(=O)N[C@@H](CCC(=O)O)C(=O)N1CCC[C@H]1C(=O)N3)NC(=O)[C@H](CCCCN)NC(=O)CNC(=O)[C@H](CCCNC(=N)N)NC(=O)[C@H](CCSC)NC2=O [N30R] (H-GVIINVKCKISRQCLEPCKKAGMRFGKCMRGKCHCTPK-OH; disulfide 8-28, 14-33, 18-35)
IC50 [1, 3]: 0.445 nM | IC50 [2, 4]: 0.405 nM

CC[C@H](C)[C@@H]1NC(=O)[C@H](CCCCN)NC(=O)[C@@H](NC(=O)[C@H](CCCCN)NC(=O)[C@@H](NC(=O)[C@H](CC(N)=O)NC(=O)[C@@H](NC(=O)[C@@H](NC(=O)[C@@H](NC(=O)CN)C(C)C)[C@@H](C)CC)[C@@H](C)CC)C(C)C)CSSC[C@@H]2NC(=O)[C@H](CCCCN)NC(=O)CNC(=O)[C@H](Cc3ccccc3)NC(=O)[C@H](Cc3cccc4ccccc34)NC(=O)[C@H](CCSC)NC(=O)CNC(=O)[C@H](C)NC(=O)[C@H](CCCCN)NC(=O)[C@H](CCCCN)NC(=O)[C@@H]3CSSC[C@@H](C(=O)N[C@H](C(=O)N4CCC[C@H]4C(=O)N[C@@H](CCCCN)C(=O)O)[C@@H](C)O)NC(=O)[C@H](Cc4c[nH]cn4)NC(=O)[C@H](CSSC[C@H](NC(=O)[C@H](CCC(N)=O)NC(=O)[C@H](CCCNC(=N)N)NC(=O)[C@H](CO)NC1=O)C(=O)N[C@@H](CC(C)C)C(=O)N[C@@H](CCC(=O)O)C(=O)N1CCC[C@H]1C(=O)N3)NC(=O)[C@H](CCCCN)NC(=O)CNC(=O)[C@H](CC(N)=O)NC(=O)[C@H](CCSC)NC2=O [R24Nal] (H-GVIINVKCKISRQCLEPCKKAGM[1Nal]FGKCMNGKCHCTPK-OH; disulfide 8-28, 14-33, 18-35)
IC50 [1, 3]: 0.818 nM | IC50 [2, 4]: 0.293 nM

CC[C@H](C)[C@@H]1NC(=O)[C@H](CCCCN)NC(=O)[C@@H](NC(=O)[C@H](CCCCN)NC(=O)[C@@H](NC(=O)[C@H](CC(N)=O)NC(=O)[C@@H](NC(=O)[C@@H](NC(=O)[C@@H](NC(=O)CN)C(C)C)[C@@H](C)CC)[C@@H](C)CC)C(C)C)CSSC[C@@H]2NC(=O)[C@H](CCCCN)NC(=O)CNC(=O)[C@H](Cc3ccccc3)NC(=O)[C@H](CCCNC(=N)N)NC(=O)[C@H](CCSC)NC(=O)CNC(=O)[C@H](C)NC(=O)[C@H](CCCCN)NC(=O)[C@H](CCCCN)NC(=O)[C@@H]3CSSC[C@@H](C(=O)N[C@H](C(=O)N4CCC[C@H]4C(=O)N[C@@H](CCCCN)C(=O)O)[C@@H](C)O)NC(=O)[C@H](Cc4c[nH]cn4)NC(=O)[C@H](CSSC[C@H](NC(=O)[C@H](CCC(N)=O)NC(=O)[C@H](CCCNC(=N)N)NC(=O)[C@H](CO)NC1=O)C(=O)N[C@@H](CC(C)C)C(=O)N[C@@H](CCC(=O)O)C(=O)N1CCC[C@H]1C(=O)N3)NC(=O)[C@H](CCCCN)NC(=O)[C@H](CCC(=O)O)NC(=O)[C@H](CC(N)=O)NC(=O)[C@H](CCSC)NC2=O [G31E] (H-GVIINVKCKISRQCLEPCKKAGMRFGKCMNEKCHCTPK-OH; disulfide 8-28, 14-33, 18-35)
IC50 [1, 3]: 0.111 nM | IC50 [2, 4]: 0.095 nM

GVIINAKCKISRQCLEPCKKAGMRFGKCMNGKCHCTPK [Ala-6 (SEQ ID No: 1405)]
IC50 ([1]; read-out: Average IC50 IFNg): 0.0805 nM | IC50 ([2]; read-out: Average IC50 IL-2): 0.0733 nM

CC[C@H](C)[C@@H]1NC(=O)[C@H](CCCCN)NC(=O)[C@@H](NC(=O)[C@H](CCCCN)NC(=O)[C@@H](NC(=O)[C@H](CC(N)=O)NC(=O)[C@@H](NC(=O)[C@@H](NC(=O)[C@@H](NC(=O)CN)C(C)C)[C@@H](C)CC)[C@@H](C)CC)C(C)C)CSSC[C@@H]2NC(=O)[C@H](CCC(=O)O)NC(=O)CNC(=O)[C@H](Cc3ccccc3)NC(=O)[C@H](CCCNC(=N)N)NC(=O)[C@H](CCSC)NC(=O)CNC(=O)[C@H](C)NC(=O)[C@H](CCCCN)NC(=O)[C@H](CCCCN)NC(=O)[C@@H]3CSSC[C@@H](C(=O)N[C@H](C(=O)N4CCC[C@H]4C(=O)N[C@@H](CCCCN)C(=O)O)[C@@H](C)O)NC(=O)[C@H](Cc4c[nH]cn4)NC(=O)[C@H](CSSC[C@H](NC(=O)[C@H](CCC(N)=O)NC(=O)[C@H](CCCNC(=N)N)NC(=O)[C@H](CO)NC1=O)C(=O)N[C@@H](CC(C)C)C(=O)N[C@@H](CCC(=O)O)C(=O)N1CCC[C@H]1C(=O)N3)NC(=O)[C@H](CCCCN)NC(=O)CNC(=O)[C@H](CC(N)=O)NC(=O)[C@H](CCSC)NC2=O [K27E] (H-GVIINVKCKISRQCLEPCKKAGMRFGECMNGKCHCTPK-OH; disulfide 8-28, 14-33, 18-35)
IC50 [1, 3]: 7.14 nM | IC50 [2, 4]: 5.55 nM

CC[C@H](C)[C@@H]1NC(=O)[C@H](CCCCN)NC(=O)[C@@H](NC(=O)[C@H](CCCCN)NC(=O)[C@@H](NC(=O)[C@H](CC(N)=O)NC(=O)[C@@H](NC(=O)[C@@H](NC(=O)[C@@H](NC(=O)CN)C(C)C)[C@@H](C)CC)[C@@H](C)CC)C(C)C)CSSC[C@@H]2NC(=O)[C@H](CCCCN)NC(=O)CNC(=O)[C@H](Cc3ccccc3)NC(=O)[C@H](CCCNC(=N)N)NC(=O)[C@H](CCSC)NC(=O)CNC(=O)[C@H](C)NC(=O)[C@H](CCCCN)NC(=O)[C@H](CCCCN)NC(=O)[C@@H]3CSSC[C@@H](C(=O)N[C@H](C(=O)N4CCC[C@H]4C(=O)N[C@@H](CCCCN)C(=O)O)[C@@H](C)O)NC(=O)[C@H](Cc4c[nH]cn4)NC(=O)[C@H](CSSC[C@H](NC(=O)[C@H](CCC(N)=O)NC(=O)[C@H](CCCNC(=N)N)NC(=O)[C@H](CO)NC1=O)C(=O)N[C@@H](CC(C)C)C(=O)N[C@@H](CCCNC(=N)N)C(=O)N1CCC[C@H]1C(=O)N3)NC(=O)[C@H](CCCCN)NC(=O)CNC(=O)[C@H](CC(N)=O)NC(=O)[C@H](CCSC)NC2=O [E16R] (H-GVIINVKCKISRQCLRPCKKAGMRFGKCMNGKCHCTPK-OH; disulfide 8-28, 14-33, 18-35)
IC50 [1, 3]: 0.454 nM | IC50 [2, 4]: 0.556 nM

CC[C@H](C)[C@@H]1NC(=O)[C@H](CCCCN)NC(=O)[C@@H](NC(=O)[C@H](CCCCN)NC(=O)[C@@H](NC(=O)[C@H](CC(N)=O)NC(=O)[C@@H](NC(=O)[C@@H](NC(=O)[C@H](Cc2cccc3ccccc23)NC(=O)CN)[C@@H](C)CC)[C@@H](C)CC)C(C)C)CSSC[C@@H]2NC(=O)[C@H](CCCCN)NC(=O)CNC(=O)[C@H](Cc3ccccc3)NC(=O)[C@H](CCCNC(=N)N)NC(=O)[C@H](CCSC)NC(=O)CNC(=O)[C@H](C)NC(=O)[C@H](CCCCN)NC(=O)[C@H](CCCCN)NC(=O)[C@@H]3CSSC[C@@H](C(=O)N[C@H](C(=O)N4CCC[C@H]4C(=O)N[C@@H](CCCCN)C(=O)O)[C@@H](C)O)NC(=O)[C@H](Cc4c[nH]cn4)NC(=O)[C@H](CSSC[C@H](NC(=O)[C@H](CCC(N)=O)NC(=O)[C@H](CCCNC(=N)N)NC(=O)[C@H](CO)NC1=O)C(=O)N[C@@H](CC(C)C)C(=O)N[C@@H](CCC(=O)O)C(=O)N1CCC[C@H]1C(=O)N3)NC(=O)[C@H](CCCCN)NC(=O)CNC(=O)[C@H](CC(N)=O)NC(=O)[C@H](CCSC)NC2=O [V2Nal] (H-G[1Nal]IINVKCKISRQCLEPCKKAGMRFGKCMNGKCHCTPK-OH; disulfide 8-28, 14-33, 18-35)
IC50 [1, 3]: 0.524 nM | IC50 [2, 4]: 0.75 nM
